Data as given in US20230081426A1, “COMPOUNDS AND METHODS FOR KRAS MODULATION AND INDICATIONS THEREFOR” (Plexxikon Inc., priority 2020, published 2023).

Legend:
[1] = target: T1, G12V-mutant human KRAS (amino acid residues 1-188) (Homo sapiens, UniProt P01116, G12V); experiment: KRAS Binding Competition Assay (AlphaScreen; biotinylated KRpep-2d analogue), G12V; conditions: geometric mean, read-out: KRAS GMean IC50 (uM) MUTATION: G12V
T1 construct: G12V-mutant human KRAS (amino acid residues 1-188) with FLAG tag was purified from E. coli; made in house; host or cells: E. coli

[2] = target: T2, G12D-mutant human KRAS (amino acid residues 1-188) (Homo sapiens, UniProt P01116, G12D); experiment: KRAS Binding Disruption Assay (AlphaScreen; biotinylated KRpep-2d analogue or RAF1-RBD), G12D; conditions: KRAS G12D; geometric mean; read-out: KRAS GMean IC50 (uM) MUTATION: G12D
T2 construct: G12D or G12C-mutant human KRAS (amino acid residues 1-188) with FLAG tag; made in house; host or cells: E. coli
How it was run: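 Mutant KRAS (5-20 nM) incubated 1 h at 25° C with test compound and 5-20 nM biotinylated KRpep-2d analogue or RAF1-RBD in 20 mM HEPES pH 7.5, 100 mM NaCl, 5 mM MgCl2, 0.01% Tween-20, 0.01% BSA.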

SMILES | IC50 [1] [µM] | IC50 [2] [µM]
Cc1ccnc(-c2ccc3c(N4[C@@H]5CC[C@H]4CNC5)nc(OC[C@@H]4CCCN4C)nc3c2)c1C [P-0261, 4-((1R,5S)-3,8-diazabicyclo[3.2.1]octan-8-yl)-7-(3,4-dimethylpyridin-2-yl)-2-(((S)-1-methylpyrrolidin-2-yl)methoxy)quinazoline] | 100 to 1000 | 100 to 1000
CN1CCC[C@H]1COc1nc(N2[C@@H]3CC[C@H]2CN(c2cnccn2)C3)c2ccc(-c3cc(O)cc4ccccc34)cc2n1 [P-0268, 4-(2-(((S)-1-methylpyrrolidin-2-yl)methoxy)-4-((1R,5S)-3-(pyrazin-2-yl)-3,8-diazabicyclo[3.2.1]octan-8-yl)quinazolin-7-yl)naphthalen-2-ol] | 10 to 100 | 10 to 100
CN1CCC[C@H]1COc1nc(N2[C@@H]3CC[C@H]2CN(CC(=O)N2CCNCC2)C3)c2ccc(-c3cc(O)cc4ccccc34)cc2n1 [P-0269, 2-((1R,5S)-8-(7-(3-hydroxynaphthalen-1-yl)-2-(((S)-1-methylpyrrolidin-2-yl)methoxy)quinazolin-4-yl)-3,8-diazabicyclo[3.2.1]octan-3-yl)-1-(piperazin-1-yl)ethan-1-one] | 10 to 100 | 0.0001 to 10
CN1CCC[C@H]1COc1nc(N2[C@@H]3CC[C@H]2CN(c2nccc(N)n2)C3)c2ccc(-c3cc(O)cc4ccccc34)cc2n1 [P-0270, 4-(4-((1R,5S)-3-(4-aminopyrimidin-2-yl)-3,8-diazabicyclo[3.2.1]octan-8-yl)-2-(((S)-1-methylpyrrolidin-2-yl)methoxy)quinazolin-7-yl)naphthalen-2-ol] | 10 to 100 | 0.0001 to 10
CN1CCC[C@H]1COc1nc(N2[C@@H]3CC[C@H]2CN(CC(O)CO)C3)c2ccc(-c3cc(O)cc4ccccc34)cc2n1 (stereo partly drawn) [P-0272, 3-((1R,5S)-8-(7-(3-hydroxynaphthalen-1-yl)-2-(((S)-1-methylpyrrolidin-2-yl)methoxy)quinazolin-4-yl)-3,8-diazabicyclo[3.2.1]octan-3-yl)propane-1,2-diol] | 10 to 100 | 0.0001 to 10
CN1CCC[C@H]1COc1nc(N2[C@@H]3CC[C@H]2CN(C(=O)c2cc[nH]n2)C3)c2ccc(-c3cc(O)cc4ccccc34)cc2n1 [P-0273, ((1R,5S)-8-(7-(3-hydroxynaphthalen-1-yl)-2-(((S)-1-methylpyrrolidin-2-yl)methoxy)quinazolin-4-yl)-3,8-diazabicyclo[3.2.1]octan-3-yl)(1H-pyrazol-3-yl)methanone] | 10 to 100 | 10 to 100
CN1CCC[C@H]1COc1nc(N2[C@@H]3CC[C@H]2CN(CC(=O)N2CCC(N)CC2)C3)c2ccc(-c3cc(O)cc4ccccc34)cc2n1 [P-0274, 1-(4-aminopiperidin-1-yl)-2-((1R,5S)-8-(7-(3-hydroxynaphthalen-1-yl)-2-(((S)-1-methylpyrrolidin-2-yl)methoxy)quinazolin-4-yl)-3,8-diazabicyclo[3.2.1]octan-3-yl)ethan-1-one] | 100 to 1000 | 0.0001 to 10
CN1CCC[C@H]1COc1nc(N2[C@@H]3CC[C@H]2CN(CC(=O)N2CC(O)C2)C3)c2ccc(-c3cc(O)cc4ccccc34)cc2n1 [P-0275, 1-(3-hydroxyazetidin-1-yl)-2-((1R,5S)-8-(7-(3-hydroxynaphthalen-1-yl)-2-(((S)-1-methylpyrrolidin-2-yl)methoxy)quinazolin-4-yl)-3,8-diazabicyclo[3.2.1]octan-3-yl)ethan-1-one] | 10 to 100 | 10 to 100
CN1CCC[C@H]1COc1nc(N2[C@@H]3CC[C@H]2CN(CC(=O)N2CCOCC2)C3)c2ccc(-c3cc(O)cc4ccccc34)cc2n1 [P-0276, 2-((1R,5S)-8-(7-(3-hydroxynaphthalen-1-yl)-2-(((S)-1-methylpyrrolidin-2-yl)methoxy)quinazolin-4-yl)-3,8-diazabicyclo[3.2.1]octan-3-yl)-1-morpholinoethan-1-one] | 10 to 100 | 10 to 100
CN1CCN(C(=O)CN2C[C@H]3CC[C@@H](C2)N3c2nc(OC[C@@H]3CCCN3C)nc3cc(-c4cc(O)cc5ccccc45)ccc23)CC1 [P-0277, 2-((1R,5S)-8-(7-(3-hydroxynaphthalen-1-yl)-2-(((S)-1-methylpyrrolidin-2-yl)methoxy)quinazolin-4-yl)-3,8-diazabicyclo[3.2.1]octan-3-yl)-1-(4-methylpiperazin-1-yl)ethan-1-one] | 10 to 100 | 0.0001 to 10
CN1CCC[C@H]1COc1nc(N2C[C@H]3CC[C@@H](C2)N3CC(=O)C2CCOC2)c2ccc(-c3cc(O)cc4ccccc34)c(F)c2n1 (stereo partly drawn) [P-0278, 2-((1R,5S)-3-(8-fluoro-7-(3-hydroxynaphthalen-1-yl)-2-(((S)-1-methylpyrrolidin-2-yl)methoxy)quinazolin-4-yl)-3,8-diazabicyclo[3.2.1]octan-8-yl)-1-(tetrahydrofuran-3-yl)ethan-1-one] | 10 to 100 | 0.0001 to 10

Continued, values first:

IC50 [1] [µM] | IC50 [2] [µM] | SMILES
10 to 100 | 0.0001 to 10 | CN1CCC[C@H]1COc1nc(N2[C@@H]3CC[C@H]2CNC3)c2ccc(-c3c(O)ccc4ccccc34)cc2n1 [P-0259, 1-(4-((1R,5S)-3,8-diazabicyclo[3.2.1]octan-8-yl)-2-(((S)-1-methylpyrrolidin-2-yl)methoxy)quinazolin-7-yl)naphthalen-2-ol]
10 to 100 | 10 to 100 | CN1CCC[C@H]1COc1nc(N2[C@@H]3CC[C@H]2CNC3)c2ccc(-c3cncc(Br)c3Cl)cc2n1 [P-0260, 4-((1R,5S)-3,8-diazabicyclo[3.2.1]octan-8-yl)-7-(5-bromo-4-chloropyridin-3-yl)-2-(((S)-1-methylpyrrolidin-2-yl)methoxy)quinazoline]
10 to 100 | 10 to 100 | CN1CCC[C@H]1COc1nc(N2[C@@H]3CC[C@H]2CNC3)c2ccc(-c3cc(O)cc4cccnc34)cc2n1 [P-0262, 8-(4-((1R,5S)-3,8-diazabicyclo[3.2.1]octan-8-yl)-2-(((S)-1-methylpyrrolidin-2-yl)methoxy)quinazolin-7-yl)quinolin-6-ol]
10 to 100 | 10 to 100 | CN1CCC[C@H]1COc1nc(N2[C@@H]3CC[C@H]2CNC3)c2ccc(-c3cc([N+](=O)[O-])cc4ccccc34)cc2n1 [P-0263, 4-((1R,5S)-3,8-diazabicyclo[3.2.1]octan-8-yl)-2-(((S)-1-methylpyrrolidin-2-yl)methoxy)-7-(3-nitronaphthalen-1-yl)quinazoline]
10 to 100 | 10 to 100 | CN1CCC[C@H]1COc1nc(N2[C@@H]3CC[C@H]2CNC3)c2ccc(-c3c(Cl)cccc3Cl)cc2n1 [P-0264, 4-((1R,5S)-3,8-diazabicyclo[3.2.1]octan-8-yl)-7-(2,6-dichlorophenyl)-2-(((S)-1-methylpyrrolidin-2-yl)methoxy)quinazoline]
0.0001 to 10 | 0.0001 to 10 | CN1CCC[C@H]1COc1nc(N2[C@@H]3CC[C@H]2CNC3)c2ccc(-c3cc(N)cc4ccccc34)cc2n1 [P-0265, 4-(4-((1R,5S)-3,8-diazabicyclo[3.2.1]octan-8-yl)-2-(((S)-1-methylpyrrolidin-2-yl)methoxy)quinazolin-7-yl)naphthalen-2-amine]
10 to 100 | 10 to 100 | CN1CCC[C@H]1COc1nc(N2[C@@H]3CC[C@H]2CN(C(=O)NC2CCN(C4CCCCC4)C2)C3)c2ccc(-c3cc(O)cc4ccccc34)cc2n1 (stereo partly drawn) [P-0266, (1R,5S)-N-(1-cyclohexylpyrrolidin-3-yl)-8-(7-(3-hydroxynaphthalen-1-yl)-2-(((S)-1-methylpyrrolidin-2-yl)methoxy)quinazolin-4-yl)-3,8-diazabicyclo[3.2.1]octane-3-carboxamide]
10 to 100 | 10 to 100 | CN1CCC[C@H]1COc1nc(N2[C@@H]3CC[C@H]2CN(C(=O)CCCN2CCOCC2)C3)c2ccc(-c3cc(O)cc4ccccc34)cc2n1 [P-0267, 1-((1R,5S)-8-(7-(3-hydroxynaphthalen-1-yl)-2-(((S)-1-methylpyrrolidin-2-yl)methoxy)quinazolin-4-yl)-3,8-diazabicyclo[3.2.1]octan-3-yl)-4-morpholinobutan-1-one]
0.0001 to 10 | 10 to 100 | CN1CCC[C@H]1COc1nc(N2[C@@H]3CC[C@H]2CN(C(=O)Nc2ccn[nH]2)C3)c2ccc(-c3cc(O)cc4ccccc34)cc2n1 [P-0271, (1R,5S)-8-(7-(3-hydroxynaphthalen-1-yl)-2-(((S)-1-methylpyrrolidin-2-yl)methoxy)quinazolin-4-yl)-N-(1H-pyrazol-5-yl)-3,8-diazabicyclo[3.2.1]octane-3-carboxamide]
0.0001 to 10 | 0.0001 to 10 | CN(C)CCNS(=O)(=O)N1[C@@H]2CC[C@H]1CN(c1nc(OCC34CCCN3CCC4)nc3c(F)c(-c4cc(O)cc5ccccc45)ccc13)C2 [P-0280, (1R,5S)-N-(2-(dimethylamino)ethyl)-3-(8-fluoro-7-(3-hydroxynaphthalen-1-yl)-2-((tetrahydro-1H-pyrrolizin-7a(5H)-yl)methoxy)quinazolin-4-yl)-3,8-diazabicyclo[3.2.1]octane-8-sulfonamide]
0.0001 to 10 | 0.0001 to 10 | CN1CCN(CCNS(=O)(=O)N2[C@@H]3CC[C@H]2CN(c2nc(OCC45CCCN4CCC5)nc4c(F)c(-c5cc(O)cc6ccccc56)ccc24)C3)CC1 [P-0281, (1R,5S)-3-(8-fluoro-7-(3-hydroxynaphthalen-1-yl)-2-((tetrahydro-1H-pyrrolizin-7a(5H)-yl)methoxy)quinazolin-4-yl)-N-(2-(4-methylpiperazin-1-yl)ethyl)-3,8-diazabicyclo[3.2.1]octane-8-sulfonamide]
